According to patent US6951883B2, “2H-1-benzopyran derivatives processes for their preparation and pharmaceutical compositions thereof” (Chiesi Farmaceutici S.p.A., priority 2001, dated 2005):

What was measured:
OVX rats [1] = assay: Four-week OVX rat assay, uterine effects (weight, eosinophil peroxidase, histology); settings: in vivo
Experimental: (§1) The experiments have been conducted according to Kaln D N, Bone Mineral 15, 175-192, 1991 and Grese T A et al J Med Chem 40, 146-167, 1997.
(§2) The effects of the tested compounds were evaluated also in 9-11-month-old OVX rats that were dosed for 4 weeks post-surgery and compared with OVX and Sham controls.
(§3) Tissue-specific estrogen agonist effects were examined utilizing uterine weight, uterine histology, uterine eosinophil peroxidase activity (EPO), bone mineral density (BMD), and serum cholesterol levels as end points.
The degree of eosinophilic peroxidase induction of the uterus may be a useful marker for estrogen-effected growth responses (Lyttle C R and DeSombre E R Proc Natl Acad Sci USA 74, 3162-3166, 1977).

OVX rats [2] = assay: Four-week OVX rat assay, bone mineral density (lumbar spine L1-4) by DEXA; assay type: in vivo; settings: 4 weeks
Experimental: Effects in the Ovariectomized (OVX) Rat Model
as §1, §2, §3
Effect on Bone Mineral Density (BMD) (Lumbar Spine L1-4)
Bone mineral density (BMD) was measured by DEXA (Dual Energy XRay Absorptiometry) using a Hologic QDR-1000 plus instrument equipped with dedicated software for small animal measurements. An ultrahigh-resolution mode (line spacing 0.0254 cm and resolution 0.0127 cm) was used with a collimator of 0.63 mm diameter. This technique provides an integrated measure of both cortical and trabecular bone.
In vivo DEXA measurements were carried out immediately before surgery (baseline scan) and 4 weeks after surgery. The anatomic region examined was the lumbar spine L1-4.
All animals were anesthetized before scanning with a mixture of ketamine and p-promazine. For each scan a rat was placed in a supine position with the spine parallel to the long axis of the densitometer table. The lumbar spine was scanned using the pelvic bones as landmark; analysis of this site was accomplished by dividing vertebra and intervertebral spaces with subregional high resolution software and including only target vertebra in the global region of interest.
Percent protection was calculated by the following formula: % protection=[(% chance BMDtest compound−% chance BMDOVX control)/(% chance BMDsham control−% chance BMDOVX control)]×100.

[3] = tested on: immature female rats (E2-stimulated uterus); assay: Immature female rat assay, antiuterotrophic activity; assay type: in vivo
Excerpt: (§4) In Vivo Studies—Immature Female Rat Assay.
Antiuterotrophic Activity
(§5) Experiments have been conducted as described in Eppenberger U et al, Am J Clin Oncol 14 (suppl. 2), S5-S14, 1991.
This concentration of E2 was the lowest producing near-maximal effect and was chosen on the basis of preliminary dose-response experiments.

OVX rats [4] = assay: Four-week OVX rat assay, serum cholesterol levels; assay type: in vivo; settings: for lowering of serum cholesterol levels, comparison in words: with respect to controls, compared with E2 / Compound II
Experimental: as §1, §2, §3
Effect on Serum Cholesterol Levels

[5] = tested on: immature female rats (uterine weight); assay: Immature female rat assay, uterotrophic activity; assay type: in vivo; settings: for increase of uterine weight compared with vehicle treated control rats: 0.1 mg/kg/day; for uterine weight versus control rats: 0.01, 1 and 10 mg/kg/day; for uterine weights versus control rats: 0.01, 0.1, 1 and 10 mg/kg·day
Excerpt: as §4, §5

human ER-β = human ER-β (Homo sapiens, UniProt Q92731); assay: Human estrogen receptor-β binding; settings: for affinity for ER-β higher than raloxifene: compared with raloxifene
Excerpt: (§6) In Vitro Study—Human Estrogen Receptor-α and -β (ER-α and ER-β)

human ER-α = target: T1, human ER-α (Homo sapiens, UniProt P03372); assay: Human estrogen receptor-α binding
T1 sequence (P03372 1-595): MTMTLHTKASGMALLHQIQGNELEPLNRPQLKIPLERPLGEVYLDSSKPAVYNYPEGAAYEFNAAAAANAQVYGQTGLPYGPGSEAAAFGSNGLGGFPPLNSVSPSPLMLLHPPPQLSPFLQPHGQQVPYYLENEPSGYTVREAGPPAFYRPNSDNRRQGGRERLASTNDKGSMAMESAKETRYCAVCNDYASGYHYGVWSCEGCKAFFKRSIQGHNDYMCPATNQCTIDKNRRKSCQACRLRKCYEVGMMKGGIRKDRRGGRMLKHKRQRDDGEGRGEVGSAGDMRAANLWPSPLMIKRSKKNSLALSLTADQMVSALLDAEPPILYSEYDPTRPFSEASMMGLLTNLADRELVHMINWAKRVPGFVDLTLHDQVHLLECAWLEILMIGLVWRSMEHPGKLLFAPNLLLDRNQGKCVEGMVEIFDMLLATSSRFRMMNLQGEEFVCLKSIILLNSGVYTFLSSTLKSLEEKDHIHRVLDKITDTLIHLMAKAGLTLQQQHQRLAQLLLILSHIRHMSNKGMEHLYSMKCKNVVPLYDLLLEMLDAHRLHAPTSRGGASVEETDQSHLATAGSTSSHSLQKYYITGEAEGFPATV
Excerpt: as §6

MCF-7 = assay: cells; settings: for concentration of total growth inhibition: 72-hours incubation; for IC50: read-out: Inhibitory Concentration IC50
Experimental: In Vitro Study—MCF-7 Cell Proliferation
The tumor cells were obtained from American Type Culture Collection (ATCC HTB-22). The culture media used was Minimum Essential medium with 10% fetal bovine serum, and media were supplemented with 1% antibiotic-antimycotic. Aliquots of 100 μl of cell suspension (5×10^3/well) were placed in 96-well microtiter plates in an atmosphere of 5% CO2 at 37° C. After 24 hours, 100 μl of growth medium, 2 μl of test solution, mitomycin or vehicle (DMSO, final concentration 0.4%), was added respectively per well in duplicate for an additional 72-hours incubation. At the end of incubation, 20 μl of alamarBlue 75% reagent was added to each well for another 6-hour incubation before detection of cell viability by fluorescent intensity (excitation at 530 nm and emission at 590 nm).

Solubility in water = assay type: physicochemical; settings: r.t.
[6] = oral, E2 0.05 mg/kg per os for 3 days

human ER-β, sequence (Q92731 whole entry): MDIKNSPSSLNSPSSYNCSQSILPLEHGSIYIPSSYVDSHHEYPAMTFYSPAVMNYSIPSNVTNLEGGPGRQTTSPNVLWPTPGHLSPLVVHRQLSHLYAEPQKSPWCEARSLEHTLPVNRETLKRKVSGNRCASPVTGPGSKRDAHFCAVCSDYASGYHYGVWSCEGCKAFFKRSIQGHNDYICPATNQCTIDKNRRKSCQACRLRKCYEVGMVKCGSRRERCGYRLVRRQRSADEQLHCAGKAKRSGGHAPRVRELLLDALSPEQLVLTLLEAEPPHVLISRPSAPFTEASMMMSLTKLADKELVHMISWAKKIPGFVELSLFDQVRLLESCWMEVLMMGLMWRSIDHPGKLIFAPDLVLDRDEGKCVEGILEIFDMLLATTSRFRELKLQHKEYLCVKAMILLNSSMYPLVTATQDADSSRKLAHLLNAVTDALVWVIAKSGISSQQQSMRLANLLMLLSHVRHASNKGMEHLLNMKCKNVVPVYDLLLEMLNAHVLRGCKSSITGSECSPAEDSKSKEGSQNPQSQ

Which results are given for “17α-ethynil estradiol [reference compound]”?
uterine epithelia / endometrium histology (OVX rats [1]): full disappearance of epithelium atrophy; % protection of BMD (OVX rats [2]; first experiment, 0.1 mg/kg): ~50%; % protection of BMD (OVX rats [2]; second experiment, 0.1 mg/kg): ~95%; increase of uterine wet weight compared with vehicle-treated controls ([3]; 0.05 mg/kg per os for 3 days): 170-220%

What does the source list for `Oc1ccc2c(c1)OCC(c1ccccc1)=C2Cc1ccc(OCCN2CCCCC2)cc1` [Compound I, 3-phenyl-4-(4-(2-(N-piperidinyl)ethoxy)benzyl)-7-hydroxychrom-3-ene]?
maximal lowering of cholesterol, inhibition relative to the OVX control (OVX rats [4]; 10 mg/kg): 67%; ED50 (OVX rats [4]; Rattus norvegicus, 672 h, 0.1-10 mg/kg day, 4 weeks, read-out: ED50, decrease of total serum cholesterol (half maximal efficacy)): 0.12 mg/kg; increase of uterine weight compared with vehicle treated control rats [5]: 17%; uterine weight versus control rats [5]: not significantly different from control rats; Ki (human ER-β): 0.157 ± 0.028 nM; affinity for ER-β higher than raloxifene (human ER-β): 10 fold; % protection of BMD (OVX rats [2]; first experiment, 10 mg/kg/day): 47%; Ki (human ER-α): 0.041 ± 0.011 nM; concentration of total growth inhibition (MCF-7): 11 µM; CC50 (MCF-7; Homo sapiens, MCF7, 72 h, read-out: 50% lethal concentrations (LC50)): 20000 nM; IC50 (MCF-7; Homo sapiens, MCF7, 72 h): 6500 nM; dose at which total antagonism of E2 uterotrophic action was observed ([3]; oral): 1 to 10 mg/kg/day; EC50, inhibition of the uterotrophic action of E2 [3, 6]: 0.33 mg/kg·day

Which “decrease of total serum cholesterol, inhibition” value (OVX rats [4]; 0.1 mg/kg·day) does the source give for `COc1ccc(C2=C(Cc3ccc(OCCN4CCCCC4)cc3)c3ccc(O)cc3OC2)cc1.Cl` [Compound II, 3-(4-methoxy)phenyl-4-[[4-[2-(1-piperidinyl)ethoxyl]phenyl]methyl]-2H-1-benzopyran-7-ol hydrochloride] here?
Its value is 75%.

And the “decrease of total serum cholesterol, inhibition” value (OVX rats [4]; 1 mg/kg·day)?
The value was 81%.

What about the “lowering of serum cholesterol levels, comparison in words” value (“lowering of serum cholesterol levels” below) (OVX rats [4]) of the same compound?
Its value is “as efficacious as E2”.

What about the “uterine weights versus control rats” value [5] of the same compound?
Its value is “not significantly different from control rats”.

And the Ki (human ER-β)?
Its Ki is 0.099 ± 0.005 nM.

And the “affinity for ER-β higher than raloxifene” value (human ER-β)?
The value was 16 fold.

And the “% protection of BMD” value (OVX rats [2]; second experiment, 0.1 mg/kg)?
Its value is 60%.

What about the “% protection of BMD” value (OVX rats [2]; second experiment, 1 mg/kg·day) of the same compound?
The value was 119%.

And the Ki (human ER-α)?
The Ki was 0.017 ± 0.002 nM.

What about the “dose at which total antagonism of E2 uterotrophic action was observed” value ([3]; oral) of the same compound?
Its value is 0.1-1 mg/kg·day.

What about the “ED50 = dose required to produce 50% reduction in estradiol-stimulated growth” value [3, 6] of the same compound?
The value was 0.016 mg/kg·day.

For `CS(=O)(=O)O.Oc1ccc2c(c1)OCC(c1ccccc1)=C2Cc1ccc(OCCN2CCCCC2)cc1` [Example 43, 3-phenyl-4-(4-(2-(N-piperidinyl)ethoxy)benzyl)-7-hydroxychrom-3-ene methansulfonate (1:1)], which solubility (Solubility in water) is on record?
The solubility was > 1000 µg/mL.

Which “lowering of serum cholesterol levels” value (OVX rats [4]) does the source give for `COc1ccc2c(c1)OC(C)(C)[C@@H](c1ccccc1)[C@@H]2c1ccc(OCCN2CCCC2)cc1` [levormeloxifene] here?
Its value is “significantly less potent”.

And the “uterine weights versus control rats” value [5]?
Its value is “significantly increased”.

And the “maximal agonist activity, % that of E2” value ([5]; at 1 mg/kg)?
Its value is 60-65%.

And the “eosinophilic peroxidase activity compared to OVX uteri” value (OVX rats [1])?
Its value is “significantly increased”.

And the “uterine epithelia / endometrium histology” value (OVX rats [1])?
Its value is “full disappearance of epithelium atrophy”.

And the “inhibition of E2 stimulation of the uterus” value ([3]; at 1 mg/kg/day, partial antagonism)?
The value was 40-45%.

Which “lowering of serum cholesterol levels” value (OVX rats [4]) does the source give for `O=C(c1ccc(OCCN2CCCCC2)cc1)c1c(-c2ccc(O)cc2)sc2cc(O)ccc12` [raloxifene] here?
Its value is “significantly less potent”.

And the “increase of uterine weight compared with vehicle treated control rats” value [5]?
Its value is 32%.

And the “uterine weights versus control rats” value [5]?
Its value is “not significantly different from control rats”.

And the “uterine weight versus control rats” value [5]?
The value was “not significantly different from control rats”.

And the “concentration of total growth inhibition” value (MCF-7)?
The value was 18 µM.

What about the IC50 (MCF-7; Homo sapiens, MCF7, 72 h) of the same compound?
Its IC50 is 11000 nM.

And the “ED50 = dose required to produce 50% reduction in estradiol-stimulated growth” value [3, 6]?
Its value is 0.39 mg/kg·day.

Which “concentration of total growth inhibition” value (MCF-7) does the source give for `CC/C(=C(\c1ccccc1)c1ccc(OCCN(C)C)cc1)c1ccccc1` [tamoxifene] here?
The value was 11 µM.
